Molecular target: T1, cGMP-specific PDE (PDE5) (Homo sapiens, UniProt O76074)
T1 construct: obtained from human corpus cavernosum tissue or human platelets; from tissue; host or cells: human corpus cavernosum tissue or human platelets
Assay: In vitro PDE inhibitory activity, cGMP PDE5
Assay type: biochemical
Details: enzyme from human corpus cavernosum tissue or human platelets; low substrate such that IC50≅Ki
Description: The compounds of the present invention are potent and selective cGMP PDE5 inhibitors. In vitro PDE inhibitory activities against cyclic guanosine 3′,5′-monophosphate (cGMP) and cyclic adenosine 3′,5′-monophosphate (cAMP) phosphodiesterases were determined by measurement of their IC50 values (the concentration of compound required for 50% inhibition of enzyme activity).
The required PDE enzymes were isolated from a variety of sources, including human corpus cavernosum, human platelets, human cardiac ventricle, human skeletal muscle and human and canine retina, essentially by the method of W. J. Thompson and M. M. Appleman (Biochem., 1971, 10, 311). In particular, the cGMP-specific PDE (PDE5) and the cGMP-inhibited cAMP PDE (PDE3) were obtained from human corpus cavernosum tissue or human platelets; the cGMP-stimulated PDE (PDE2) was obtained from human corpus cavernosum or human platelets; the calcium/calmodulin (Ca/CAM)-dependent PDE (PDE1) from human cardiac ventricle; the cAMP-specific PDE (PDE4) from recombinant clone or human skeletal muscle; and the photoreceptor PDE (PDE6) from canine or human retina. Phosphodiesterases 7-11 were generated from full length human recombinant clones transfected into SF9 cells.
Assays were performed either using a modification of the “batch” method of W. J. Thompson et al. (Biochem., 1979, 18, 5228) or using a scintillation proximity assay for the direct detection of AMP/GMP using a modification of the protocol described by Amersham plc under product code TRKQ7090/7100. In summary, the effect of PDE inhibitors was investigated by assaying a fixed amount of enzyme in the presence of varying inhibitor concentrations and low substrate, (cGMP or cAMP in a 3:1 ratio unlabelled to [^3H]-labeled at a conc ˜1/2 Km) such that IC50≅Ki. The final assay volume was made up to 102 μl with assay buffer [20 mM Tris-HCl pH 7.4, 5 mM MgCl2, 1 mg/ml bovine serum albumin]. Reactions were initiated with enzyme, incubated for 30-60 min at 30° C. to give <30% substrate turnover and terminated with 50 μl yttrium silicate SPA beads (containing 3 mM of the respective unlabelled cyclic nucleotide for PDEs 3, 9 and 11). Plates were re-sealed and shaken for 20 min, after which the beads were allowed to settle for 30 min in the dark and then counted on a TopCount plate reader (Packard, Meriden, Conn.). Radioactivity units were converted to % activity of an uninhibited control (100%), plotted against inhibitor concentration and inhibitor IC50 values obtained using the ‘Fit Curve’ Microsoft Excel extension or in-house equivalent.

Compound | IC50
CCCOc1ccc(C(C)=O)cc1-c1nc2c(CC)n(CCCC(=O)O)nc2c(=O)[nH]1 [Example 12, 4-[5-(5-Acetyl-2-propoxyphenyl)-3-ethyl-7-oxo-6,7-dihydro-2H-pyrazolo[4,3-d]pyrimidin-2-yl]butanoic Acid] | 1.8 nM
CCCOc1ccc(C(C)=O)cc1-c1nc2c(CC)n(CC(=O)OC(C)(C)C)nc2c(=O)[nH]1 [Example 6] | 2.2 nM
CCCOc1ccc(C(C)=O)cc1-c1nc2c(CC)n(CC(=O)N(C)C)nc2c(=O)[nH]1 [Example 13, 2-[5-(5-Acetyl-2-propoxyphenyl)-3-ethyl-7-oxo-6,7-dihydro-2H-pyrazolo[4,3-d]pyrimidin-2-yl]-N,N-dimethylacetamide] | 11.9 nM

Second part, the molecule after the results:

IC50 | Compound
13.8 nM | CCc1c2nc(-c3cc(C(C)=O)ccc3OCC(C)C)[nH]c(=O)c2nn1C1CN(C2CCC2)C1 [Example 2]
23 nM | CCCCOc1ccc(C(C)=O)cc1-c1nc2c(CC)n(C3CN(C(C)C)C3)nc2c(=O)[nH]1 [Example 3]
